According to PubChem BioAssay (NCI):
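Growth conditions: 96-well plates. Treatment: test compound, 48 hours, 5 concentrations. Analysis: linear interpolation between bracketing concentrations; unreached endpoints set to highest concentration. GI50 is the concentration that inhibits growth by half. TGI: total growth inhibition.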

How the values were obtained:
Assay in all cases: growth of human tumour cells (NCI), 48 h
NCI-H522 lung = tested on: NCI-H522 lung
SN12C renal = tested on: SN12C renal
CAKI-1 renal = tested on: CAKI-1 renal
HT29 colon = tested on: HT29 colon
NCI-H226 lung = tested on: NCI-H226 lung
786-0 renal = tested on: 786-0 renal
MALME-3M melanoma = tested on: MALME-3M melanoma
NCI-H460 lung = tested on: NCI-H460 lung
SK-OV-3 ovarian = tested on: SK-OV-3 ovarian
A549 NSCLC = tested on: A549 NSCLC
HOP-62 NSCLC = tested on: HOP-62 NSCLC
K-562 leukemia = tested on: K-562 leukemia
PC-3 prostate = tested on: PC-3 prostate
HCT-15 colon = tested on: HCT-15 colon
SR leukemia = tested on: SR leukemia
SF-268 CNS = tested on: SF-268 CNS
IGROV1 ovarian = tested on: IGROV1 ovarian
MDA-MB-231 breast = tested on: MDA-MB-231 breast
A498 renal = tested on: A498 renal
HCT-116 colon = tested on: HCT-116 colon
EKVX NSCLC = tested on: EKVX NSCLC
KM12 colon = tested on: KM12 colon
MDA-MB-435 = tested on: MDA-MB-435
LOX IMVI melanoma = tested on: LOX IMVI melanoma
T-47D breast = tested on: T-47D breast
HS 578T breast = tested on: HS 578T breast
HL-60(TB) leukemia = tested on: HL-60(TB) leukemia
SNB-75 CNS = tested on: SNB-75 CNS
RPMI-8226 leukemia = tested on: RPMI-8226 leukemia
CCRF-CEM leukemia = tested on: CCRF-CEM leukemia
UACC-62 melanoma = tested on: UACC-62 melanoma
M14 melanoma = tested on: M14 melanoma
HCC-2998 colon = tested on: HCC-2998 colon
SNB-19 CNS = tested on: SNB-19 CNS
HOP-92 NSCLC = tested on: HOP-92 NSCLC
SW-620 colon = tested on: SW-620 colon
TK-10 renal = tested on: TK-10 renal
SF-539 CNS = tested on: SF-539 CNS
COLO 205 colon = tested on: COLO 205 colon
U251 CNS = tested on: U251 CNS
SK-MEL-5 melanoma = tested on: SK-MEL-5 melanoma
OVCAR-4 ovarian = tested on: OVCAR-4 ovarian
UACC-257 melanoma = tested on: UACC-257 melanoma
OVCAR-5 ovarian = tested on: OVCAR-5 ovarian
OVCAR-8 ovarian = tested on: OVCAR-8 ovarian
ACHN renal = tested on: ACHN renal
MCF7 breast = tested on: MCF7 breast
DU-145 prostate = tested on: DU-145 prostate
UO-31 renal = tested on: UO-31 renal
BT-549 breast = tested on: BT-549 breast
MOLT-4 leukemia = tested on: MOLT-4 leukemia
NCI-H23 lung = tested on: NCI-H23 lung
OVCAR-3 ovarian = tested on: OVCAR-3 ovarian
SF-295 CNS = tested on: SF-295 CNS
SK-MEL-28 melanoma = tested on: SK-MEL-28 melanoma

`COc1cccc(C(N)=Nc2ccc(OCCCCCCCCn3cncn3)cc2)c1` was tested, and the GI50 (NCI-H522 lung) was 274 nM, the TGI (NCI-H522 lung) was 1290 nM and the GI50 (SN12C renal) was 485 nM. It also gave a TGI (SN12C renal) of 14.3 µM, a GI50 (CAKI-1 renal) of 473 nM and a TGI (CAKI-1 renal) of 45.4 µM. The GI50 (HT29 colon) was 319 nM, the TGI (HT29 colon) was 1420 nM and the GI50 (NCI-H226 lung) was 295 nM. It also gave a TGI (NCI-H226 lung) of 2050 nM, a GI50 (786-0 renal) of 812 nM and a TGI (786-0 renal) of 26.9 µM. The GI50 (MALME-3M melanoma) was 310 nM, the TGI (MALME-3M melanoma) was 17.4 µM and the GI50 (NCI-H460 lung) was 356 nM. The TGI (NCI-H460 lung) was > 33.5 µM, the GI50 (SK-OV-3 ovarian) was 540 nM and the TGI (SK-OV-3 ovarian) was 49.2 µM. The GI50 (A549 NSCLC) was 581 nM, the TGI (A549 NSCLC) was > 100 µM and the GI50 (HOP-62 NSCLC) was 614 nM. The TGI (HOP-62 NSCLC) was 18.5 µM, the GI50 (K-562 leukemia) was 230 nM and the TGI (K-562 leukemia) was > 100 µM. The GI50 (PC-3 prostate) was 424 nM, the TGI (PC-3 prostate) was > 50.3 µM and the GI50 (HCT-15 colon) was 330 nM. The TGI (HCT-15 colon) was 12.4 µM, the GI50 (SR leukemia) was 319 nM and the TGI (SR leukemia) was > 56.9 µM. It also gave a GI50 (SF-268 CNS) of 1990 nM, a TGI (SF-268 CNS) of 42.8 µM and a GI50 (IGROV1 ovarian) of 530 nM. It also gave a TGI (IGROV1 ovarian) of 21 µM, a GI50 (MDA-MB-231 breast) of 385 nM and a TGI (MDA-MB-231 breast) of 4.89 µM. The GI50 (A498 renal) was 14.9 µM, the TGI (A498 renal) was 59.5 µM and the GI50 (HCT-116 colon) was 417 nM. The TGI (HCT-116 colon) was 17.1 µM, the GI50 (EKVX NSCLC) was 429 nM and the TGI (EKVX NSCLC) was > 75.2 µM. The GI50 (KM12 colon) was 425 nM, the TGI (KM12 colon) was > 65.5 µM and the GI50 (MDA-MB-435) was 130 nM. It also gave a TGI (MDA-MB-435) of 378 nM, a GI50 (LOX IMVI melanoma) of 522 nM and a TGI (LOX IMVI melanoma) of 11.8 µM. For the same compound, the GI50 (T-47D breast) was 426 nM, the TGI (T-47D breast) was > 72.4 µM and the GI50 (HS 578T breast) was 374 nM. The TGI (HS 578T breast) was 38.9 µM, the GI50 (HL-60(TB) leukemia) was 306 nM and the TGI (HL-60(TB) leukemia) was 1080 nM. The GI50 (SNB-75 CNS) was 262 nM, the TGI (SNB-75 CNS) was > 45.4 µM and the GI50 (RPMI-8226 leukemia) was 293 nM. The TGI (RPMI-8226 leukemia) was 4.87 µM, the GI50 (CCRF-CEM leukemia) was 292 nM and the TGI (CCRF-CEM leukemia) was 10.4 µM. It also gave a GI50 (UACC-62 melanoma) of 435 nM, a TGI (UACC-62 melanoma) of 17.2 µM and a GI50 (M14 melanoma) of 324 nM. The TGI (M14 melanoma) was 18.9 µM, the GI50 (HCC-2998 colon) was 380 nM and the TGI (HCC-2998 colon) was 3.52 µM. The GI50 (SNB-19 CNS) was 576 nM, the TGI (SNB-19 CNS) was > 67.7 µM and the GI50 (HOP-92 NSCLC) was 1630 nM. For the same compound, the TGI (HOP-92 NSCLC) was 30.2 µM, the GI50 (SW-620 colon) was 387 nM and the TGI (SW-620 colon) was > 100 µM. For the same compound, the GI50 (TK-10 renal) was 799 nM, the TGI (TK-10 renal) was > 100 µM and the GI50 (SF-539 CNS) was 235 nM. The TGI (SF-539 CNS) was 585 nM, the GI50 (COLO 205 colon) was 315 nM and the TGI (COLO 205 colon) was 1090 nM. For the same compound, the GI50 (U251 CNS) was 333 nM, the TGI (U251 CNS) was 4.57 µM and the GI50 (SK-MEL-5 melanoma) was 286 nM. For the same compound, the TGI (SK-MEL-5 melanoma) was 1090 nM, the GI50 (OVCAR-4 ovarian) was 3.18 µM and the TGI (OVCAR-4 ovarian) was > 100 µM. For the same compound, the GI50 (UACC-257 melanoma) was 2020 nM, the TGI (UACC-257 melanoma) was 27.8 µM and the GI50 (OVCAR-5 ovarian) was 493 nM. The TGI (OVCAR-5 ovarian) was > 45.6 µM, the GI50 (OVCAR-8 ovarian) was 342 nM and the TGI (OVCAR-8 ovarian) was 2100 nM. The GI50 (ACHN renal) was 650 nM, the TGI (ACHN renal) was 39.4 µM and the GI50 (MCF7 breast) was 266 nM. It also gave a TGI (MCF7 breast) of 15 µM, a GI50 (DU-145 prostate) of 417 nM and a TGI (DU-145 prostate) of 31.5 µM. It also gave a GI50 (UO-31 renal) of 544 nM, a TGI (UO-31 renal) of 19.9 µM and a GI50 (BT-549 breast) of 975 nM. For the same compound, the TGI (BT-549 breast) was 22.3 µM, the GI50 (MOLT-4 leukemia) was 596 nM and the TGI (MOLT-4 leukemia) was > 100 µM. The GI50 (NCI-H23 lung) was 385 nM, the TGI (NCI-H23 lung) was 15.5 µM and the GI50 (OVCAR-3 ovarian) was 369 nM. For the same compound, the TGI (OVCAR-3 ovarian) was 25.4 µM, the GI50 (SF-295 CNS) was 320 nM and the TGI (SF-295 CNS) was 11 µM. For the same compound, the GI50 (SK-MEL-28 melanoma) was 693 nM and the TGI (SK-MEL-28 melanoma) was 24.1 µM.
